In PubChem BioAssay AID1963975 (Molecular Pharmacology Branch, DTP, NCI, 2024):

Tested on: 624824-186-R-J2-PDC multicell spheroids, viability
Assay: Anticancer human tumor 624824-186-R-J2-PDC patient-derived colon adenocarcinoma cell line growth inhibition [PI3K]
Settings: for IC50: curve of first compound; for viability, T/C: stronger effect = lower value
Outline: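 Spheroid viability read-out. Co-cultures contained the tumor line plus HUVEC and human MSCs. Each agent was paired with a PI3K inhibitor (inavolisib, alpelisib, duvelisib, copanlisib) across half-log dilutions starting at clinical Cmax, or at 10 microM when Cmax was unknown.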

[1] = second compound 0.0316 µM, first compound 0.0316 µM
[2] = second compound 0.0316 µM, first compound 0.1 µM
[3] = second compound 0.0316 µM, first compound 0.316 µM
[4] = second compound 0.0316 µM, first compound 1 µM
[5] = second compound 0.0316 µM, first compound 3.16 µM
[6] = second compound 0.0316 µM, first compound 10 µM
[7] = second compound 0.1 µM, first compound 0.0316 µM
[8] = second compound 0.1 µM, first compound 0.1 µM
[9] = second compound 0.1 µM, first compound 0.316 µM
[10] = second compound 0.1 µM, first compound 1 µM
[11] = second compound 0.1 µM, first compound 3.16 µM
[12] = second compound 0.1 µM, first compound 10 µM
[13] = second compound 0.316 µM, first compound 0.0316 µM
[14] = second compound 0.316 µM, first compound 0.1 µM
[15] = second compound 0.316 µM, first compound 0.316 µM
[16] = second compound 0.316 µM, first compound 1 µM
[17] = second compound 0.316 µM, first compound 3.16 µM
[18] = second compound 0.316 µM, first compound 10 µM
[19] = second compound 1 µM, first compound 0.0316 µM
[20] = second compound 1 µM, first compound 0.1 µM
[21] = second compound 1 µM, first compound 0.316 µM
[22] = second compound 1 µM, first compound 1 µM
[23] = second compound 1 µM, first compound 3.16 µM
[24] = second compound 1 µM, first compound 10 µM
[25] = second compound 3.16 µM, first compound 0.0316 µM
[26] = second compound 3.16 µM, first compound 0.1 µM
[27] = second compound 3.16 µM, first compound 0.316 µM
[28] = second compound 3.16 µM, first compound 1 µM
[29] = second compound 3.16 µM, first compound 3.16 µM
[30] = second compound 3.16 µM, first compound 10 µM
[31] = second compound 10 µM, first compound 0.0316 µM
[32] = second compound 10 µM, first compound 0.1 µM
[33] = second compound 10 µM, first compound 0.316 µM
[34] = second compound 10 µM, first compound 1 µM
[35] = second compound 10 µM, first compound 3.16 µM
[36] = second compound 10 µM, first compound 10 µM
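Note: spheroids exposed to agents for 7 days before viability read.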
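Throughout, for viability, T/C: 100% = DMSO vehicle treated spheroids.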

SMILES: C#Cc1c(F)ccc2cc(O)cc(-c3ncc4c(N5CC6CCC(C5)N6)nc(OCC56CCCN5CC(F)C6)nc4c3F)c12 (stereo not drawn) + CC(Nc1ncnc2nc[nH]c12)c1cc2cccc(Cl)c2c(=O)n1-c1ccccc1
- IC50 (second compound 0.0316 µM): > 10 µM
- IC50 (second compound 0.1 µM): > 10 µM
- IC50 (second compound 0.316 µM): > 10 µM
- IC50 (second compound 1 µM): > 10 µM
- IC50 (second compound 3.16 µM): > 10 µM
- IC50 (second compound 10 µM): > 10 µM
- viability, T/C [1]: 81.5%
- viability, T/C [2]: 80%
- viability, T/C [3]: 106%
- viability, T/C [4]: 73.1%
- viability, T/C [5]: 93.2%
- viability, T/C [6]: 59.5%
- viability, T/C [7]: 83.8%
- viability, T/C [8]: 78.7%
- viability, T/C [9]: 76%
- viability, T/C [10]: 74.1%
- viability, T/C [11]: 77.9%
- viability, T/C [12]: 67.7%
- viability, T/C [13]: 78.9%
- viability, T/C [14]: 93.6%
- viability, T/C [15]: 93.8%
- viability, T/C [16]: 82.5%
- viability, T/C [17]: 64.5%
- viability, T/C [18]: 71.9%
- viability, T/C [19]: 73%
- viability, T/C [20]: 72.8%
- viability, T/C [21]: 81%
- viability, T/C [22]: 76.6%
- viability, T/C [23]: 86.3%
- viability, T/C [24]: 75.5%
- viability, T/C [25]: 78.8%
- viability, T/C [26]: 97.9%
- viability, T/C [27]: 74.7%
- viability, T/C [28]: 84.3%
- viability, T/C [29]: 94.6%
- viability, T/C [30]: 70.2%
- viability, T/C [31]: 87.4%
- viability, T/C [32]: 83.2%
- viability, T/C [33]: 91.4%
- viability, T/C [34]: 102%
- viability, T/C [35]: 98%
- viability, T/C [36]: 89.4%

SMILES: C=CC(=O)N1CCN(c2nc(=O)n(-c3c(C)ccnc3C(C)C)c3nc(-c4c(O)cccc4F)c(F)cc23)C(C)C1 (stereo not drawn) + CC(Nc1ncnc2nc[nH]c12)c1cc2cccc(Cl)c2c(=O)n1-c1ccccc1
- IC50 (second compound 0.0316 µM): > 10 µM
- IC50 (second compound 0.1 µM): > 10 µM
- IC50 (second compound 0.316 µM): > 10 µM
- IC50 (second compound 1 µM): > 10 µM
- IC50 (second compound 3.16 µM): > 10 µM
- IC50 (second compound 10 µM): > 10 µM
- viability, T/C [1]: 77.6%
- viability, T/C [2]: 82.8%
- viability, T/C [3]: 100%
- viability, T/C [4]: 85.2%
- viability, T/C [5]: 75.2%
- viability, T/C [6]: 77.9%
- viability, T/C [7]: 95.2%
- viability, T/C [8]: 77.9%
- viability, T/C [9]: 82%
- viability, T/C [10]: 93.6%
- viability, T/C [11]: 78.1%
- viability, T/C [12]: 90.2%
- viability, T/C [13]: 104%
- viability, T/C [14]: 94.2%
- viability, T/C [15]: 79.4%
- viability, T/C [16]: 88.7%
- viability, T/C [17]: 83.8%
- viability, T/C [18]: 72.8%
- viability, T/C [19]: 106%
- viability, T/C [20]: 80.7%
- viability, T/C [21]: 84.8%
- viability, T/C [22]: 84.4%
- viability, T/C [23]: 77.3%
- viability, T/C [24]: 70.6%
- viability, T/C [25]: 97.6%
- viability, T/C [26]: 96.6%
- viability, T/C [27]: 77.5%
- viability, T/C [28]: 90.4%
- viability, T/C [29]: 85.5%
- viability, T/C [30]: 81%
- viability, T/C [31]: 116%
- viability, T/C [32]: 98.7%
- viability, T/C [33]: 109%
- viability, T/C [34]: 99.2%
- viability, T/C [35]: 92.3%
- viability, T/C [36]: 83%

SMILES: CC(Cn1ccc(-c2ccc(C#N)c(Cl)c2)n1)NC(=O)c1cc(C(C)O)[nH]n1 (stereo not drawn) + CC(Nc1ncnc2nc[nH]c12)c1cc2cccc(Cl)c2c(=O)n1-c1ccccc1
- IC50 (second compound 0.0316 µM): > 10 µM
- IC50 (second compound 0.1 µM): > 10 µM
- IC50 (second compound 0.316 µM): > 10 µM
- IC50 (second compound 1 µM): > 10 µM
- IC50 (second compound 3.16 µM): > 10 µM
- IC50 (second compound 10 µM): > 10 µM
- viability, T/C [1]: 98.2%
- viability, T/C [2]: 90.6%
- viability, T/C [3]: 96.1%
- viability, T/C [4]: 106%
- viability, T/C [5]: 99.2%
- viability, T/C [6]: 113%
- viability, T/C [7]: 92.1%
- viability, T/C [8]: 93.6%
- viability, T/C [9]: 114%
- viability, T/C [10]: 108%
- viability, T/C [11]: 98.5%
- viability, T/C [12]: 115%
- viability, T/C [13]: 111%
- viability, T/C [14]: 102%
- viability, T/C [15]: 84.7%
- viability, T/C [16]: 97.5%
- viability, T/C [17]: 107%
- viability, T/C [18]: 100%
- viability, T/C [19]: 105%
- viability, T/C [20]: 106%
- viability, T/C [21]: 95.2%
- viability, T/C [22]: 94.5%
- viability, T/C [23]: 80.5%
- viability, T/C [24]: 92.4%
- viability, T/C [25]: 112%
- viability, T/C [26]: 102%
- viability, T/C [27]: 85.5%
- viability, T/C [28]: 102%
- viability, T/C [29]: 110%
- viability, T/C [30]: 115%
- viability, T/C [31]: 103%
- viability, T/C [32]: 106%
- viability, T/C [33]: 110%
- viability, T/C [34]: 115%
- viability, T/C [35]: 106%
- viability, T/C [36]: 107%

SMILES: CC1(C)CCC(Nc2ncc(C(F)(F)F)c(-c3c[nH]c4c(P(C)(C)=O)c(C#N)ccc34)n2)CN1 (stereo not drawn) + CC(Nc1ncnc2nc[nH]c12)c1cc2cccc(Cl)c2c(=O)n1-c1ccccc1
- IC50 (second compound 0.0316 µM): 3.55 µM
- IC50 (second compound 0.1 µM): 4.27 µM
- IC50 (second compound 0.316 µM): 3.13 µM
- IC50 (second compound 1 µM): 3.73 µM
- IC50 (second compound 3.16 µM): 2.99 µM
- IC50 (second compound 10 µM): 2.97 µM
- viability, T/C [1]: 81.1%
- viability, T/C [2]: 93.2%
- viability, T/C [3]: 102%
- viability, T/C [4]: 108%
- viability, T/C [5]: 54.9%
- viability, T/C [6]: 6.48%
- viability, T/C [7]: 94.1%
- viability, T/C [8]: 92.3%
- viability, T/C [9]: 96.3%
- viability, T/C [10]: 104%
- viability, T/C [11]: 65.7%
- viability, T/C [12]: 6.11%
- viability, T/C [13]: 91%
- viability, T/C [14]: 76.4%
- viability, T/C [15]: 90.8%
- viability, T/C [16]: 108%
- viability, T/C [17]: 49.7%
- viability, T/C [18]: 5.05%
- viability, T/C [19]: 108%
- viability, T/C [20]: 94.1%
- viability, T/C [21]: 100%
- viability, T/C [22]: 98.7%
- viability, T/C [23]: 57.6%
- viability, T/C [24]: 4.82%
- viability, T/C [25]: 91.2%
- viability, T/C [26]: 94.7%
- viability, T/C [27]: 100%
- viability, T/C [28]: 93.3%
- viability, T/C [29]: 47.8%
- viability, T/C [30]: 4.88%
- viability, T/C [31]: 100%
- viability, T/C [32]: 84.4%
- viability, T/C [33]: 92.3%
- viability, T/C [34]: 81.3%
- viability, T/C [35]: 48.1%
- viability, T/C [36]: 3.89%
